How the values were obtained:
Format in all cases: cell-based
Conditions in all cases: Homo sapiens, LPS 100 ng/mL
[1] = tested on: IL-1β; assay: Inhibition of IL-1β in PMA-differentiated, LPS-stimulated THP-1 cells (ELISA of cell lysate)
Method: (§1) (1) Cell culture and inoculation: A stock solution of PMA at 1 mg/mL was diluted with serum-free RP1640 medium to prepare a 100 ng/mL PMA solution. Normal cultured THP-1 cells were centrifuged, resuspended in a complete medium (RP1640 medium containing 10% FBS), and counted. The cell density was adjusted to 2×10^6 cells/mL. An equal volume of 100 ng/mL PMA solution was then added, resulting in a cell density of 1×10^6 cells/mL and a final PMA concentration of 50 ng/mL. 100 μL of the cell suspension was seeded into each well of a 96-well cell culture plate with 1×10^5 cells per well. The 96-well cell culture plate was then incubated at 37° C. in a 5% CO2 atmosphere for 24 hours.
(§2) (2) Drug treatment of cells: On the second day, LPS was added to the complete medium to adjust the final concentration to 100 ng/mL, and the compound was prepared using this LPS-containing medium. The compound was added to the appropriate cell wells according to the prepared concentration gradient. The positive control group (LPS+) was a culture medium solution containing a final concentration of 100 ng/mL LPS and 0.1% DMSO without drugs, while the negative control group (LPS-) was a culture medium solution containing 0.1% DMSO without LPS. The volume in each well was 100 μL.
(§3) (3) Test sample collection: The mixture was centrifuged at 1000 rpm for 5 minutes and the cell supernatant and cell precipitate were collected separately. The cell supernatant was used to detect TNF-α and IL-6, and the cell precipitate was collected for IL-1β detection. After collecting the cell supernatant, the remaining liquid in the wells was discarded and 100 μL of cell lysis solution (20 mM Tris 8.0; 2 mM EDTA; 0.5% Triton X-100) was added to each well for complete lysis.
(§4) (4) Sample detection: The enzyme-linked immunosorbent assay (ELISA) was used to detect the content of each cytokine. The specific steps were performed according to the instructions provided in the corresponding kit manuals. The catalog numbers of kits are as follows: • Human TNF-alpha Quantikine ELISA Kit, Catalog # STA00D • Human IL-1 beta/IL-1F2 Quantikine ELISA Kit, Catalog # SLB50 • Human IL-6 Quantikine ELISA Kit, Catalog # S6050.
(§5) (5) Data analysis: The in vitro inhibitory activity of the compounds was calculated using the following formula: […]

[2] = tested on: IL-6; assay: Inhibition of IL-6 in PMA-differentiated, LPS-stimulated THP-1 cells (ELISA of cell supernatant)
Method: as §1, §2, §3, §4, §5

[3] = tested on: TNF-α; assay: Inhibition of TNF-α in PMA-differentiated, LPS-stimulated THP-1 cells (ELISA of cell supernatant)
Method: as §1, §2, §3, §4, §5

| IC50 ([1]; THP-1, Table 8, PMA 50 ng/mL) [µM] | IC50 ([2]; THP-1, Table 8, PMA 50 ng/mL) [µM] | IC50 ([3]; THP-1, Table 8, PMA 50 ng/mL) [µM] | IC50 ([1]; THP-1, Table 7, PMA 50 ng/mL) [µM] | IC50 ([2]; THP-1, Table 7, PMA 50 ng/mL) [µM] | IC50 ([3]; THP-1, Table 7, PMA 50 ng/mL) [µM] | SMILES |
| --- | --- | --- | --- | --- | --- | --- |
| 21 | 0.28 | 28.3 |  |  |  | O=C1NC2(CCCC2)C(=O)N1CCCCCNc1ncnc2cc(F)ccc12 [Example 52, 3-(5-((7-Fluoroquinazolin-4-yl)amino)pentyl)-1,3-diazaspiro[4.4]nonane-2,4-dione] |
|  |  |  | 0.7 | 0.6 | 10.1 | CC(CCCN(CCO)Cc1ccc(S(C)(=O)=O)cc1)Nc1ncnc2cc(Cl)ccc12 (stereo not drawn) [Example 40] |
|  |  |  | 5.9 | 0.47 | 6.4 | CC(CCCN(CCO)Cc1cccc(F)c1)Nc1ncnc2cc(Cl)ccc12 (stereo not drawn) [Example 20, 2-((4-((7-Chloroquinazolin-4-yl)amino)pentyl)(3-fluorobenzyl)amino)ethan-1-ol] |
|  |  |  | 14.4 | 1.28 | 5.54 | CC(CCCNCC1(C)COC1)Nc1ccnc2cc(Cl)ccc12 (stereo not drawn) [Example 4, N^4-(7-Chloroquinolin-4-yl)-N^1-((3-methyloxetan-3-yl)methyl)pentane-1,4-diamine] |
| 3.52 | 0.04 | 3.96 |  |  |  | O=C1NC2(CCC2)C(=O)N1CCCCCNc1ncnc2cc(F)ccc12 [Example 51, 7-(5-((7-Fluoroquinazolin-4-yl)amino)pentyl)-5,7-diazaspiro[3.4]octane-6,8-dione] |
|  |  |  | 24.3 | 10.6 | 29.9 | O=C1CCC(=O)N1CCCCNc1ccnc2cc(Cl)ccc12 [Example 11, 1-(4-((7-Chloroquinolin-4-yl)amino)butyl)pyrrolidine-2,5-dione] |
| 12.8 | 0.23 | 7.5 |  |  |  | CC(CCCN1C(=O)NC2(CCCC2)C1=O)Nc1ncnc2cc(Cl)ccc12 (stereo not drawn) [Example 72, 3-(4-((7-Chloroquinazolin-4-yl)amino)pentyl)-1,3-diazaspiro[4.4]nonane-2,4-dione] |
| 154 | 1.05 | 114 |  |  |  | CN1CC(=O)N(CCCCCNc2ncnc3cc(F)ccc23)C1=O [Example 54, 3-(5-((7-Fluoroquinazolin-4-yl)amino)pentyl)-1-methylimidazoline-2,4-dione] |
| 26.6 | 1.37 | 22.7 |  |  |  | C[C@@H](CCCN1C(=O)NC2(CC2)C1=O)Nc1ncnc2cc(Cl)ccc12 [Example 77, (S)-6-(4-((7-Chloroquinazolin-4-yl)amino)pentyl)-4,6-diazaspiro[2.4]heptane-5,7-dione] |
|  |  |  | 14 | 0.33 | 3.82 | CC(CCCN(CCO)Cc1ccc(S(C)(=O)=O)cc1)Nc1ccnc2cc(Cl)ccc12 (stereo not drawn) [Example 26, 2-((4-((7-Chloroquinolin-4-yl)amino)pentyl)(4-(methylsulfonyl)benzyl)amino)ethan-1-ol] |
|  |  |  | 48.3 | 10.5 | 28.3 | CCN1CCC2(C1)CN(CCCC(C)Nc1ccnc3cc(Cl)ccc13)C2 (stereo not drawn) [Example 9, 7-Chloro-N-(5-(6-ethyl-2,6-diazaspiro[3.4]octan-2-yl)pentan-2-yl)quinolin-4-amine] |
|  |  |  | 41.8 | 0.18 | 4.88 | COc1ccc(CN(CCO)CCCC(C)Nc2ncnc3cc(Cl)ccc23)cc1F (stereo not drawn) [Example 37] |
|  |  |  | 1 | 1.94 | 58.1 | OCCN(CCCCNc1ncnc2cc(Cl)ccc12)Cc1ncco1 [Example 47, 2-((4-((7-Chloroquinazolin-4-yl)amino)butyl)(oxazol-2-ylmethyl)amino)ethan-1-ol] |
|  |  |  | 23.6 | 0.641 | 4.72 | CC(CCCN(CCO)Cc1cccc(F)c1)Nc1ccnc2cc(Cl)ccc12 (stereo not drawn) [Example 17, 2-((4-((7-Chloroquinolin-4-yl)amino)pentyl)(3-fluorobenzyl)amino)ethan-1-ol] |
|  |  |  | 3.31 | 2.84 | 6.56 | COC(=O)c1ccc(CN(CCO)CCCC(C)Nc2ccnc3cc(F)ccc23)cc1 (stereo not drawn) [Example 42] |
|  |  |  | 49.6 | 0.91 | 14.8 | OCCN(CCCCCNc1ncnc2cc(F)ccc12)Cc1ncco1 [Example 48, 2-((5-((7-Fluoroquinazolin-4-yl)amino)pentyl)(oxazol-2-ylmethyl)amino)ethan-1-ol] |

| IC50 ([1]; THP-1, Table 8, PMA 50 ng/mL) [µM] | IC50 ([2]; THP-1, Table 8, PMA 50 ng/mL) [µM] | IC50 ([3]; THP-1, Table 8, PMA 50 ng/mL) [µM] | IC50 ([1]; THP-1, Table 7, PMA 50 ng/mL) [µM] | IC50 ([2]; THP-1, Table 7, PMA 50 ng/mL) [µM] | IC50 ([3]; THP-1, Table 7, PMA 50 ng/mL) [µM] | SMILES |
| --- | --- | --- | --- | --- | --- | --- |
| 13.7 | 0.58 | 11.7 |  |  |  | CC1(C)NC(=O)N(CCCCCNc2ncnc3cc(Cl)ccc23)C1=O [Example 69, 3-(5-((7-Chloroquinazolin-4-yl)amino)pentyl)-5,5-dimethylimidazoline-2,4-dione] |
| 37.4 | 0.3 | 3.41 |  |  |  | O=C1NC2(CCCC2)C(=O)N1CCCCCNc1ncnc2cc(Cl)ccc12 [Example 66, 3-(5-((7-Chloroquinazolin-4-yl)amino)pentyl)-1,3-diazaspiro[4.4]nonane-2,4-dione] |
|  |  |  | 17.9 | 1.17 | 10.4 | CC(CCCN1C(=O)CN(C)C1=O)Nc1ccnc2cc(Cl)ccc12 (stereo not drawn) [Example 2, 3-(4-((7-Chloroquinolin-4-yl)amino)pentyl)-1-methylimidazolidine-2,4-dione] |
|  |  |  | 1.36 | 0.38 | 2.79 | CC(CCCN(CCO)Cc1ccc(C#N)cc1)Nc1ccnc2cc(Cl)ccc12 (stereo not drawn) [Example 23, 4-(((4-((7-Chloroquinolin-4-yl)amino)pentyl)(2-hydroxyethyl)amino)methyl)benzonitrile] |
|  |  |  | 36.6 | 3.16 | 33.4 | CC(CCCN(CCO)Cc1ccccc1)Nc1ncnc2cc(Cl)ccc12 (stereo not drawn) [Example 34, 2-(Benzyl(4-((7-chloroquinazolin-4-yl)amino)pentyl)amino)ethan-1-ol] |
| 38.1 | 1.5 | 33.5 |  |  |  | CC(CCCN1C(=O)NC2(CC2)C1=O)Nc1ncnc2cc(Cl)ccc12 (stereo not drawn) [Example 73, 6-(4-((7-Chloroquinazolin-4-yl)amino)pentyl)-4,6-diazaspiro[2.4]heptane-5,7-dione] |
| 51.6 | 0.75 | 7.18 |  |  |  | O=C1NC2(CCCC2)C(=O)N1CCCCNc1ncnc2cc(Cl)ccc12 [Example 62, 3-(4-((7-Chloroquinazolin-4-yl)amino)butyl)-1,3-diazaspiro[4.4]nonane-2,4-dione] |
|  |  |  | 4.36 | 1.32 | 5.07 | CC(CCCN(CCO)Cc1ccc2ccccc2c1)Nc1ccnc2cc(Cl)ccc12 (stereo not drawn) [Example 25, 2-((4-((7-Chloroquinolin-4-yl)amino)pentyl)(naphthalen-2-ylmethyl)amino)ethan-1-ol] |
|  |  |  | 28.6 | 1.8 | 7.83 | CC(CCCN1C(=O)CNC1=O)Nc1ncnc2cc(Cl)ccc12 (stereo not drawn) [Example 13, 3-(4-((7-Chloroquinazolin-4-yl)amino)pentyl)imidazolidine-2,4-dione] |
|  |  |  | 33.8 | 1.57 | 4.01 | CC(CCCN(CCO)Cc1ccc(OC(F)(F)F)cc1)Nc1ccnc2cc(F)ccc12 (stereo not drawn) [Example 43] |
|  |  |  | 5.66 | 0.82 | 20.1 | CC(CCCN(CCO)Cc1ccccc1)Nc1ncnc2cc(F)ccc12 (stereo not drawn) [Example 35, 2-(Benzyl(4-((7-fluoroquinazolin-4-yl)amino)pentyl)amino)ethan-1-ol] |
|  |  |  | 7.4 | 0.77 | 7.89 | CC(CCCN(CCO)Cc1ccc(-n2cccn2)cc1)Nc1ncnc2cc(Cl)ccc12 (stereo not drawn) [Example 39] |
|  |  |  | 34.1 | 3.29 | 18.4 | CC(CCCN1CC2CCCC2C1)Nc1ccnc2cc(Cl)ccc12 (stereo not drawn) [Example 8, 7-Chloro-N-(5-(hexahydrocyclopenta[c]pyrrol-2 (1H)-yl)pentan-2-yl)quinolin-4-amine] |
| 86.5 | 2.58 | 90.7 |  |  |  | CN1CC(=O)N(CCCCNc2ncnc3cc(F)ccc23)C1=O [Example 58, 3-(4-((7-Fluoroquinazolin-4-yl)amino)butyl)-1-methylimidazoline-2,4-dione] |
| 53.9 | 3.22 | 29.4 |  |  |  | CC1(C)NC(=O)N(CCCCNc2ncnc3cc(F)ccc23)C1=O [Example 57, 3-(4-((7-Fluoroquinazolin-4-yl)amino)butyl)-5,5-dimethylimidazoline-2,4-dione] |
|  |  |  | 2.94 | 0.226 | 3.26 | CC(CCCN(CCO)Cc1ccc(F)cc1F)Nc1ccnc2cc(Cl)ccc12 (stereo not drawn) [Example 18, 2-((4-((7-Chloroquinolin-4-yl)amino)pentyl)(2,4-difluorobenzyl)amino)ethan-1-ol] |
